Source: US8211927B2, “5-phenyl-isoxazole-3-carboxamide derivatives as TRPV1 modulators” (MSD, Oss B.V., priority 2007, dated 2012)

Target: T1, human VR1 (Homo sapiens, UniProt Q8NER1)
T1 construct: expressed in transfected cells
Assay: FLIPR Calcium 3 calcium flux assay (headed Vanilloid Receptor Binding Assay), antagonist activity against capsaicin
Assay type: cell-based
Settings: Chinese hamster ovary cells expressing human VR1; for inhibition at 10 µM: 10 min, highest concentration of 10 μM, read-out: TRPV1 % Mean effect at 10 μM concentration; for EC50: antagonist activity vs 30 nM capsaicin, read-out: TRPV1 pEC50 (converted)
From the text: Methods to construct such recombinant cell lines are well known in the art (Sambrook et al., Molecular Cloning: a Laboratory Manual, Cold Spring Harbor Laboratory Press, Cold Spring Harbor, 2000). The compounds of the invention are thus useful in the treatment of TRPV1 mediated disorders, such as in the treatment of acute and chronic pain disorders, acute and chronic neuropathic pain, acute and chronic inflammatory pain, respiratory diseases and in lower urinary tract disorders.
Test compounds were prepared as stock solution in dimethylsulfoxide and tested for activity over several log units (ranging 100 μM-100 pM). Compounds were further diluted in assay buffer as necessary for IC50 determination.
Chinese hamster ovary cells expressing human VR1 were grown in DMEM/F12 50/50 Mix (Mediatech, Inc., Herndon, Va., USA), supplemented with 10% FetalClone II (Hyclone, Logan, Utah, USA), 1% GlutaMax (Invitrogen Corp., Carlsbad, Calif., USA), 1% Pen/Strep (Mediatech) and 0.4 mg/ml G418 (Mediatech). The day before the assay, cells were seeded into 384-well tissue culture-treated black plates with clear bottoms (Corning, Inc., Corning, N.Y., USA), at 10,000 viable cells/well in 50 μl/well of medium containing no G418.
On the day of the assay, which is the FLIPR® Calcium 3 Assay commercially available from Molecular Devices Corp., Sunnyvale, Calif. USA, the plating medium was removed and replaced with 25 μl/well 1× Calcium 3 Assay kit dye, prepared in VR1 Buffer (160 mM NaCl, 4.5 mM KCl, 10 mM HEPES, 10 mM Glucose, 2 mM CaCl2, 1 mM MgCl2 and 0.5 mM Probenecid). After 1 hour incubation at room temperature, the plates were loaded into the FLIPR (Molecular Devices, Corp.), which adds 12.5 μl of test compound in VR1 Buffer containing 4% dimethylsulfoxide and reads the subsequent change in the fluorescence of the cells to monitor agonist activity. Ten minutes after compound addition, the plates were reloaded into the FLIPR, which adds 12.5 μl of 30 nM capsaicin in VR1 Buffer and reads the subsequent change in the fluorescence of the cells to monitor antagonist activity. In this way, the same assay was used to assess both the agonist activity and antagonist activity of test compounds.

T1 sequence (Q8NER1 whole entry): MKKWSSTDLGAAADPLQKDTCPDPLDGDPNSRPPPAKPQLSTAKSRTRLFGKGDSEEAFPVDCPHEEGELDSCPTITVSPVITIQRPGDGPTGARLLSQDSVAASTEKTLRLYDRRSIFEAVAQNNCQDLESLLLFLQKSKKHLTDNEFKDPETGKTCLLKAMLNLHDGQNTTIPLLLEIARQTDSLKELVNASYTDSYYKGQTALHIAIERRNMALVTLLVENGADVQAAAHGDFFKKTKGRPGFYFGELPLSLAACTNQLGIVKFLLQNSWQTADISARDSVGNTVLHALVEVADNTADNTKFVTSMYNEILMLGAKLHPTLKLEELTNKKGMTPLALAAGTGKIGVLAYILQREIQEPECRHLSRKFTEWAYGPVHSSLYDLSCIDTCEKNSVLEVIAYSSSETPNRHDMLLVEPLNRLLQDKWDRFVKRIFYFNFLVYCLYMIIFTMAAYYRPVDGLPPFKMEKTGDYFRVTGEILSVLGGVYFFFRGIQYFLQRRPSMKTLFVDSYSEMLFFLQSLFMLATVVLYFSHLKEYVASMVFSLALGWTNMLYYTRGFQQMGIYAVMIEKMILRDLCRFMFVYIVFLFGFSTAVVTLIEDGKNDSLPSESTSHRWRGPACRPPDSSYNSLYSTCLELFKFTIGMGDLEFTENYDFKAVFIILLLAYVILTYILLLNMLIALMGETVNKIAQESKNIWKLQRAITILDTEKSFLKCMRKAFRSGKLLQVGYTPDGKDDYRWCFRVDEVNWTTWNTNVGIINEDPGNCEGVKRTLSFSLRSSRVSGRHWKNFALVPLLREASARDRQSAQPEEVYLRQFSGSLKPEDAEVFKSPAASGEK

SMILES: O=C(NC1CCCC1)c1noc(-c2ccc(C(F)(F)F)cc2)c1F
- inhibition at 10 µM: 96%
- EC50: 31.6 nM

SMILES: O=C(NC1CCCC1)c1noc(-c2ccc(C(F)(F)F)cc2)c1Br
- inhibition at 10 µM: 67%
- EC50: 10 nM

SMILES: Cc1c(C(=O)NC2CCCC2)noc1-c1ccc(C(F)(F)F)cc1
- inhibition at 10 µM: 101%
- EC50: 39.8 nM

SMILES: CCCc1c(C(=O)CC2CCCC2)noc1-c1ccc(C(F)(F)F)cc1
- inhibition at 10 µM: 98%
- EC50: 100 nM

SMILES: O=C(NC1CCOCC1)c1noc(-c2ccc(C(F)(F)F)cc2)c1Cl
- inhibition at 10 µM: 89%
- EC50: 31.6 nM

SMILES: O=C(NC1CCCC1)c1noc(-c2ccc(F)cc2)c1Cl
- inhibition at 10 µM: 98%
- EC50: 100 nM

SMILES: O=C(NC1CCCCC1)c1noc(-c2ccc(Cl)cc2)c1Cl
- inhibition at 10 µM: 88%
- EC50: 63.1 nM

SMILES: O=C(Nc1cccc(CO)c1)c1noc(-c2ccc(C(F)(F)F)c(F)c2)c1Cl
- inhibition at 10 µM: 103%
- EC50: 31.6 nM

SMILES: Cc1c(C(=O)NC2CCOCC2)noc1-c1ccc(C(F)(F)F)c(F)c1
- inhibition at 10 µM: 99%
- EC50: 12.6 nM

SMILES: CC[C@H](CO)NC(=O)c1noc(-c2ccc(C(F)(F)F)c(F)c2)c1C
- inhibition at 10 µM: 99%
- EC50: 63.1 nM

SMILES: Cc1c(C(=O)N[C@@H](C)C(C)C)noc1-c1ccc(C(F)(F)F)c(F)c1
- inhibition at 10 µM: 103%
- EC50: 100 nM

SMILES: O=C(NC1CCCC1)c1noc(-c2ccc(C(F)(F)F)cc2)c1Cl
- inhibition at 10 µM: 90%
- EC50: 3.98 nM

SMILES: O=C(NC1CCCC1)c1noc(-c2ccc(Cl)cc2)c1Cl
- inhibition at 10 µM: 102%
- EC50: 15.8 nM

SMILES: CCCC(C)NC(=O)c1noc(-c2ccc(Cl)cc2)c1Cl (centres unmarked)
- inhibition at 10 µM: 89%
- EC50: 158 nM

SMILES: O=C(NC1CCCC1)c1cc(-c2ccc(C(F)(F)F)cc2)on1
- inhibition at 10 µM: 97%
- EC50: 501 nM

SMILES: O=C(NC1CCCC1)c1cc(-c2ccc(Cl)cc2)on1
- inhibition at 10 µM: 17%

SMILES: CCCC(C)NC(=O)c1cc(-c2ccc(Cl)cc2)on1 (centres unmarked)
- inhibition at 10 µM: 50%
